Source: publication PMC6630718, “Discovery of Novel UV-Filters with Favorable Safety Profiles in the 5-Arylideneimidazolidine-2,4-dione Derivatives Group” (Molecules, 2019)

Experiments:
[1] = tested on: estrogen-dependent MCF-7 breast cancer cell line; assay: Estrogenic activity: MCF-7 proliferation, crystal violet assay; type: cell-based, human; conditions: 5 μM, 120 h, estrogen- and phenol red-free medium
Description: To determine estrogenic activity of tested compounds their influence on estrogen-dependent MCF-7 breast cancer cell line proliferation was investigated. Cells were seeded into 24-wells plates in density of 40,000 per well. After 24 h incubation, cells were washed twice with PBS and fresh, estrogen- and phenol red-free medium (DMEM low-glucose; 2,5% Charcoal Stripped FBS; 2 mM glutamine; Sigma Aldrich, Darmstadt, Germany) was added. […] After 120 h incubations, cells proliferation was determined with crystal violet assay. Briefly, cells were washed with PBS and fixed with 3,7% formaldehyde. Then, crystal violet solution was added for 10 minutes. After incubation, solution was removed and cells were washed five times with PBS. Crystal violate was extracted from cells using destaining solution (1,33% citric acid, 1,09% sodium citrate in water/methanol (1:1) solution) and absorbance of the solution was determined at 570 nm (A570). Proliferation rate was determined by dividing the A570 of experimental wells by the A570 of control wells × 100%.

[2] = In vitro stability in mouse liver microsomes; type: in vitro ADME
Outline: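 Compound (20 µM) with mouse liver microsomes (0.8 mg/mL), potassium phosphate pH 7.4, NADPH-regenerating system, 37 °C for 15–60 min; parent remaining by UPLC/MS, two repeats. t1/2 from ln % remaining versus time; Clint = (incubation volume/protein) × 0.693/t1/2.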

t ½ ([2]; mouse liver microsomes 0.8 mg/mL, 20 µM compound, NADPH-regenerating system, 37 °C): 1.1 h
Clint ([2]; mouse liver microsomes, calculated from t1/2): 13 µL/min/mg
Compound: O=C(c1ccc(O)cc1O)c1ccc(O)cc1O [BP-2, benzophenone-2, reference compound]
stimulation of MCF-7 proliferation [1]: over 60%
